In ChEMBL document CHEMBL3864146, “5-Alkyloxytryptamines are membrane-targeting, broad-spectrum antibiotics” (Bioorg Med Chem Lett, 2016):
≈ marks a conversion by molar mass, not a printed value.

Legend:
Escherichia coli [1] = assay: Adjuvant activity assessed as potentiation of rifampicin-induced antibacterial activity against Escherichia coli BW25113 at 0.5 times MIC after 16 to 18 hrs by checkerboard assay (reference value: 8 ng/ml); assay type: functional
Escherichia coli [2] = assay: Adjuvant activity assessed as potentiation of ciprofloxacin-induced antibacterial activity against Escherichia coli BW25113 at 0.5 times MIC after 16 to 18 hrs by checkerboard assay (reference value: 13 ng/ml); assay type: functional
Shigella boydii = assay: Antibacterial activity against Shigella boydii after 16 to 18 hrs by micro-dilution method; assay type: functional
[3] = Cytotoxicity against HEK cells assessed as cell viability at 2.6 ug/ml after 24 hrs by CellTiter-Glo assay relative to control; assay type: toxicity, cell-based, HEK293; settings: human, read-out: Activity
Escherichia coli [4] = assay: Adjuvant activity assessed as potentiation of chloramphenicol-induced antibacterial activity against Escherichia coli BW25113 at 0.25 times MIC after 16 to 18 hrs by checkerboard assay (reference value: 8 ng/ml); assay type: functional
Klebsiella aerogenes = assay: Antibacterial activity against Enterobacter aerogenes after 16 to 18 hrs by micro-dilution method; assay type: functional
Escherichia coli [5] = assay: Adjuvant activity assessed as potentiation of chloramphenicol-induced antibacterial activity against Escherichia coli BW25113 at 0.5 times MIC after 16 to 18 hrs by checkerboard assay (reference value: 8 ng/ml); assay type: functional
Escherichia coli [6] = assay: Adjuvant activity assessed as potentiation of ciprofloxacin-induced antibacterial activity against Escherichia coli BW25113 at 0.25 times MIC after 16 to 18 hrs by checkerboard assay (reference value: 13 ng/ml); assay type: functional
Staphylococcus aureus [7] = assay: Antibacterial activity against Staphylococcus aureus after 16 to 18 hrs by micro-dilution method; assay type: functional
Vibrio cholerae = assay: Antibacterial activity against Vibrio cholerae after 16 to 18 hrs by micro-dilution method; assay type: functional
Pseudomonas aeruginosa [8] = assay: Antibacterial activity against Pseudomonas aeruginosa after 16 to 18 hrs by micro-dilution method; assay type: functional
Morganella morganii = assay: Antibacterial activity against Morganella morganii after 16 to 18 hrs by micro-dilution method; assay type: functional
[9] = Cytotoxicity against HEK cells assessed as cell viability at 0.65 ug/ml after 48 hrs by CellTiter-Glo assay relative to control; assay type: toxicity, cell-based, HEK293; settings: human, read-out: Activity
[10] = Cytotoxicity against HEK cells assessed as cell viability at 1.3 ug/ml after 48 hrs by CellTiter-Glo assay relative to control; assay type: toxicity, cell-based, HEK293; settings: human, read-out: Activity
Escherichia coli [11] = assay: Adjuvant activity assessed as potentiation of rifampicin-induced antibacterial activity against Escherichia coli BW25113 at 0.25 times MIC after 16 to 18 hrs by checkerboard assay (reference value: 8 ng/ml); assay type: functional
Klebsiella pneumoniae [12] = assay: Antibacterial activity against Klebsiella pneumoniae after 16 to 18 hrs by micro-dilution method; assay type: functional
[13] = Cytotoxicity against HEK cells assessed as cell viability at 0.65 ug/ml after 24 hrs by CellTiter-Glo assay relative to control; assay type: toxicity, cell-based, HEK293; settings: human, read-out: Activity
Escherichia coli [14] = assay: Antibacterial activity against Escherichia coli BW25113 after 16 to 18 hrs by micro-dilution method; assay type: functional
Bacillus subtilis = assay: Antibacterial activity against Bacillus subtilis 168 after 16 to 18 hrs by micro-dilution method; assay type: functional; settings: subsp. subtilis str. 168
Escherichia coli [15] = assay: Adjuvant activity assessed as potentiation of tetracycline-induced antibacterial activity against Escherichia coli BW25113 at 0.5 times MIC after 16 to 18 hrs by checkerboard assay (reference value: 2 ng/ml); assay type: functional
[16] = Cytotoxicity against HEK cells assessed as cell viability at 2.6 ug/ml after 48 hrs by CellTiter-Glo assay relative to control; assay type: toxicity, cell-based, HEK293; settings: human, read-out: Activity
Escherichia coli [17] = assay: Antibacterial activity against tolC-deficient Escherichia coli BW25113 after 16 to 18 hrs by micro-dilution method; assay type: functional
[18] = Cytotoxicity against HEK cells assessed as cell viability at 1.3 ug/ml after 24 hrs by CellTiter-Glo assay relative to control; assay type: toxicity, cell-based, HEK293; settings: human, read-out: Activity
Acinetobacter baumannii [19] = assay: Antibacterial activity against Acinetobacter baumannii after 16 to 18 hrs by micro-dilution method; assay type: functional
Edwardsiella tarda = assay: Antibacterial activity against Edwardsiella tarda after 16 to 18 hrs by micro-dilution method; assay type: functional
Escherichia coli [20] = assay: Adjuvant activity assessed as potentiation of tetracycline-induced antibacterial activity against Escherichia coli BW25113 at 0.25 times MIC after 16 to 18 hrs by checkerboard assay (reference value: 2 ng/ml); assay type: functional
Salmonella typhimurium [21] = assay: Antibacterial activity against Salmonella typhimurium after 16 to 18 hrs by micro-dilution method; assay type: functional, Salmonella enterica subsp. enterica serovar Typhimurium; settings: Salmonella enterica
Pseudomonas aeruginosa [22] = assay: Adjuvant activity assessed as potentiation of rifampicin-induced antibacterial activity against Pseudomonas aeruginosa at 21 ug/ml after 16 to 18 hrs by checkerboard assay (reference value: 16 ug/ml); assay type: functional
[23] = Cytotoxicity against HEK cells assessed as cell viability at 10.5 ug/ml after 48 hrs by CellTiter-Glo assay relative to control; assay type: toxicity, cell-based, HEK293; settings: human, read-out: Activity
[24] = Cytotoxicity against HEK cells assessed as cell viability at 5.3 ug/ml after 48 hrs by CellTiter-Glo assay relative to control; assay type: toxicity, cell-based, HEK293; settings: human, read-out: Activity
Salmonella typhimurium [25] = assay: Adjuvant activity assessed as potentiation of rifampicin-induced antibacterial activity against Salmonella typhimurium at 21 ug/ml after 16 to 18 hrs by checkerboard assay (reference value: 8 ug/ml); assay type: functional, Salmonella enterica subsp. enterica serovar Typhimurium; settings: Salmonella enterica
[26] = Cytotoxicity against HEK cells assessed as cell viability at 21 ug/ml after 24 hrs by CellTiter-Glo assay relative to control; assay type: toxicity, cell-based, HEK293; settings: human, read-out: Activity
Acinetobacter baumannii [27] = assay: Adjuvant activity assessed as potentiation of rifampicin-induced antibacterial activity against Acinetobacter baumannii at 21 ug/ml after 16 to 18 hrs by checkerboard assay (reference value: 2 ug/ml); assay type: functional
Klebsiella pneumoniae [28] = assay: Adjuvant activity assessed as potentiation of rifampicin-induced antibacterial activity against Klebsiella pneumoniae at 21 ug/ml after 16 to 18 hrs by checkerboard assay (reference value: 16 ug/ml); assay type: functional
[29] = Cytotoxicity against HEK cells assessed as cell viability at 21 ug/ml after 48 hrs by CellTiter-Glo assay relative to control; assay type: toxicity, cell-based, HEK293; settings: human, read-out: Activity
Escherichia coli [30] = assay: Induction of membrane permeabilization in Escherichia coli BW25113 at MIC after 15 mins by propidium iodide staining-based fluorescence microplate reader method relative to 50% ethanol; assay type: functional
Staphylococcus aureus [31] = assay: Adjuvant activity assessed as potentiation of rifampicin-induced antibacterial activity against Staphylococcus aureus at 21 ug/ml after 16 to 18 hrs by checkerboard assay (reference value: 0.004 ug/ml); assay type: functional
[32] = Cytotoxicity against HEK cells assessed as cell viability at 10.5 ug/ml after 24 hrs by CellTiter-Glo assay relative to control; assay type: toxicity, cell-based, HEK293; settings: human, read-out: Activity
[33] = Cytotoxicity against HEK cells assessed as cell viability at 5.3 ug/ml after 24 hrs by CellTiter-Glo assay relative to control; assay type: toxicity, cell-based, HEK293; settings: human, read-out: Activity

Structure (SMILES) | MIC (Escherichia coli [1]) | MIC (Escherichia coli [2]) | MIC (Shigella boydii) | MIC (Escherichia coli [4]) | MIC (Klebsiella aerogenes) | MIC (Escherichia coli [5]) | MIC (Escherichia coli [6]) | MIC (Staphylococcus aureus [7]) | MIC (Vibrio cholerae) | MIC (Pseudomonas aeruginosa [8]) | MIC (Morganella morganii) | MIC (Escherichia coli [11]) | MIC (Klebsiella pneumoniae [12]) | MIC (Escherichia coli [14]) | MIC (Bacillus subtilis) | MIC (Escherichia coli [15]) | MIC (Escherichia coli [17]) | MIC (Acinetobacter baumannii [19]) | MIC (Edwardsiella tarda) | MIC (Escherichia coli [20]) | other results
CCCCCCCCCOc1cccc(CCN)c1 | 0.002 µg/mL | 0.025 µg/mL | 5.3 µg/mL (≈ 20.1 µM) | 0.008 µg/mL | 5.3 µg/mL (≈ 20.1 µM) | 0.004 µg/mL | 0.025 µg/mL | 5.3 µg/mL (≈ 20.1 µM) | 5.3 µg/mL (≈ 20.1 µM) | 21 µg/mL (≈ 79.7 µM) | 11 µg/mL (≈ 41.8 µM) | 0.004 µg/mL | 5.3 µg/mL (≈ 20.1 µM) | 5.3 µg/mL (≈ 20.1 µM) | 0.66 µg/mL (≈ 2.51 µM) | 0.001 µg/mL | 2.6 µg/mL (≈ 9.87 µM) | 5.3 µg/mL (≈ 20.1 µM) | 5.3 µg/mL (≈ 20.1 µM) | 0.002 µg/mL | viability at 24 h, 2.6 ug/ml [3]: 3.4%; viability at 48 h, 0.65 ug/ml [9]: 58.1%; viability at 48 h, 1.3 ug/ml [10]: 31%; viability at 24 h, 0.65 ug/ml [13]: 72.7%; viability at 48 h, 2.6 ug/ml [16]: 1.8%; viability at 24 h, 1.3 ug/ml [18]: 60.5%; MIC (Salmonella typhimurium [21]): 5.3 µg/mL (≈ 20.1 µM)
CCCCCCOc1ccc2[nH]cc(CCN)c2c1.Cl | 0.001 µg/mL | 0.013 µg/mL | 42 µg/mL | 0.004 µg/mL | 42 µg/mL | 0.004 µg/mL | 0.013 µg/mL | 42 µg/mL | 42 µg/mL | > 83 µg/mL | > 83 µg/mL | 0.004 µg/mL | 42 µg/mL | 42 µg/mL | 42 µg/mL | 0.001 µg/mL | 42 µg/mL | 42 µg/mL | 42 µg/mL | 0.002 µg/mL | MIC (Pseudomonas aeruginosa [22]): 16 µg/mL; viability at 48 h, 10.5 ug/ml [23]: 0%; viability at 48 h, 5.3 ug/ml [24]: 0.1%; MIC (Salmonella typhimurium [25]): 0.5 µg/mL; viability at 24 h, 21 ug/ml [26]: 0%; MIC (Acinetobacter baumannii [27]): 0.016 µg/mL; MIC (Klebsiella pneumoniae [28]): 8 µg/mL; viability at 48 h, 21 ug/ml [29]: 0%; Activity (Escherichia coli [30]): 34%; MIC (Staphylococcus aureus [31]): 0.004 µg/mL; viability at 24 h, 10.5 ug/ml [32]: 0.1%; viability at 24 h, 5.3 ug/ml [33]: 0.4%; MIC (Salmonella typhimurium [21]): 42 µg/mL
